Measurements published in US12084680B2, “Methods for efficient derivation of human motor neurons from diverse spinal regions” (Wisconsin Alumni Research Foundation, priority 2016, dated 2024).

Key:
H9 hESCs = assay: NKX6.1 induction in neurally differentiating H9 hESCs after 24 h treatment (flow cytometry, RT-PCR, day 3); type: cell-based, human
Experimental: (§1) NKX6.1 is the earliest expressed marker in the motor neuron development cascade in vivo, so we examined its expression in response to Wnt/β-catenin, RA, and SHH signaling during hPSC motor neuron differentiation. H9 hESCs were differentiated in E6 medium for 2 days to initiate neural fate acquisition34 and then treated with combinations of RA, purmorphamine (PM, a small molecule agonist of SHH signaling), and CHIR for 24 h (FIG. 4A). […] Using the H9 ishcat2 line, we observed that CHIR-mediated induction of NKX6.1 was β-catenin-dependent, as the optimal 3 days of shRNA-mediated CTNNB1 knockdown upstream of CHIR treatment was required to maximally reduce NKX6.1 induction to 44±1% (FIG. 4E). The correlation between NKX6.1 knockdown and days of doxycycline treatment was presumably due to the time delay for shRNA synthesis and subsequent gene knockdown in Tet-on systems. […] Exogenously added WNT3A (200 ng/mL) could also induce NKX6.1 expression (60±14%) (FIG. 4G), providing further evidence for the involvement of Wnt/β-catenin signaling in this process. In contrast, simultaneous treatment with CHIR and BMP4 (200 ng/mL), a dorsal patterning factor, reduced the expression of NKX6.1 from 91±1% to 68±2% (FIG. 4H).
hESCs were dissociated with accutase (Thermo Fisher Scientific) and reseeded at 1×10^5 cells/cm2 in E8 medium containing 10 μM ROCK inhibitor (Y27632; R&D Systems) on 6-well polystyrene tissue culture plates coated with 100 μg/mL poly-L-ornithine (PLO; Sigma) and 8 μg/well VTN-NC. The timelines and relevant growth factors/small molecules for all differentiation procedures are described in detail in the Results section and its accompanying figures. Cells were differentiated for various amounts of time in E6 medium containing the same insulin concentration as E8 medium as described above with varying combinations of soluble factors (product information and concentration ranges are found in Table 2). For neuromesodermal induction and HOX propagation, cells were sequentially cultured with FGF8b, CHIR99021 (CHIR), GDF11, and dorsomorphin (DM) as previously described. Briefly, to initiate the neuromesodermal state, cells were changed to E6 medium followed by addition of FGF8b (200 ng/ml) 24 h later. To generate cervical neuromesodermal progenitors, cells were washed with PBS, treated with accutase, and re-seeded in E6 medium containing 200 ng/ml FGF8b, 3 μM CHIR, and 10 μM Y27632 on VTN-NC-coated plates at a density of 1.5×10^5 cells/cm^2 for 48 h. To generate thoracic neuromesodermal progenitors, cells were passaged again after 72 h of CHIR treatment and re-seeded at different densities as described in the text.
Thoracic identity was reached after an additional 24 h. Then, to reach the lumbosacral level, cells were given 30 ng/ml GDF11 and 1 μM DM for an additional 48 h. For neuroectoderm induction and generation of OLIG2^+ progenitors, FGF8b was removed at the designated time points and the concentration of CHIR was increased for 6 h as described in the text, followed by a transition to media containing RA, PM, and SHH for a period of 48 h. For differentiation of the OLIG2^+ progenitors to motor neurons, cells were subcultured by en bloc passage using a cell scraper, reseeded at a 1:200 ratio in Matrigel-coated 8-well chamber slides, and differentiated for 14 days in E6 medium containing 1 μM RA, 100 nM PM, and 100 ng/mL SHH, with media exchange every 3 days (10 μM Y27632 was included during the en bloc passaging step and removed after the first media exchange). For differentiation of lumbar cultures, 1 μM DM was included in all steps. For the myoblast co-culture experiments, OLIG2^+ cultures were en bloc passaged, frozen in E6 medium containing 10% DMSO, shipped to a different location, and thawed 1:10 in 6-well plates under the same conditions as described in FIG. 5. To facilitate neuronal maturation prior to myoblast co-culture, 5 μM DAPT (Tocris) was added from days 8-14 post-thaw. […]

H9 ishcat2 hESC line = assay: Doxycycline-inducible shRNA knockdown of β-catenin (CTNNB1) during motor neuron differentiation; type: cell-based, human; conditions: H9 ishcat2, 3 days shRNA CTNNB1 knockdown upstream of CHIR 4 μM, day 3
Experimental: In the ventral neural tube, SHH signaling generates OLIG2^+ motor neuron progenitors that subsequently mature into post-mitotic ISL1^+ and/or HB9^+ motor neurons. To probe the role of Wnt/β-catenin signaling during this process in vitro, we utilized the H9 ishcat2 hESC line, which harbors a doxycycline-inducible shRNA against CTNNB1.
Similarly, we induced β-catenin knockdown while differentiating the hESCs into motor neurons via E6 neural induction with RA (1 μM), purmorphamine (PM, a small molecule agonist of sonic hedgehog signaling; 100 nM), and neurotrophic factor treatment, as previously described (FIG. 3A).
as §1
hESCs were maintained on Matrigel (BD Biosciences) in E8 medium but with 10-fold lower insulin concentration (2 mg/L). Cell lines used in this study were H9 hESCs (passage 25-45) and H9 ishcat2 hESCs (passage 35-45). […]

Cc1c[nH]c(-c2cnc(NCCNc3ccc(C#N)cn3)nc2-c2ccc(Cl)cc2Cl)n1 [CHIR, CHIR99021]
NKX6.1 expression (flow cytometry) (H9 hESCs; CHIR 4 μM without BMP4, day 3): 91±1%
NKX6.1 expression (flow cytometry) (H9 hESCs; CHIR alone 6 μM, 24 h, analysed day 3): 98±1%
NKX6.1 and OLIG2 gene expression (RT-PCR) (H9 hESCs; CHIR alone 6 μM, 24 h, day 3): sufficient to induce NKX6.1 but not OLIG2 gene expression
NKX6.1 induction (flow cytometry) (H9 ishcat2 hESC line): 44±1%
